Experimental findings from patent US20250213555A1, “SUBSTITUTED TETRAHYDROFURAN ANALOGS AS MODULATORS OF SODIUM CHANNELS” (VERTEX PHARMACEUTICALS INCORPORATED, priority 2021, published 2025) are described below.

Usually IC50 stands for the midpoint of a concentration-inhibition curve.

Chain of human Nav 1.8 (Q9Y5Y9 126-399 limits assumed): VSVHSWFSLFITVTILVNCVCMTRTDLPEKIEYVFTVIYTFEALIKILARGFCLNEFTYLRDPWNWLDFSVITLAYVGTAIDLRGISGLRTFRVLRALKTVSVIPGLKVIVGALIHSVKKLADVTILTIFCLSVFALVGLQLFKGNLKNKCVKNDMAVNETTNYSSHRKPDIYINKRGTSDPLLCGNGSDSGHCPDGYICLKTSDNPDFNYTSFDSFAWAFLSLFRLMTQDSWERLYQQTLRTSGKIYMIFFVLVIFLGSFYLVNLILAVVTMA
Chain of human Nav 1.8 (Q9Y5Y9 660-890 limits assumed): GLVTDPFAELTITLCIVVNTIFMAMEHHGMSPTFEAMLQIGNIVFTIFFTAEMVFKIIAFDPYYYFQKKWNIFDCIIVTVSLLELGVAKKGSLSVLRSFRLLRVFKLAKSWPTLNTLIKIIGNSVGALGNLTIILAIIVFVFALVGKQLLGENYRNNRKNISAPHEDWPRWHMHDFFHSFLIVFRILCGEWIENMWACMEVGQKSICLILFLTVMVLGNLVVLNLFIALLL
Chain of human Nav 1.8 (Q9Y5Y9 1148-1722 limits assumed): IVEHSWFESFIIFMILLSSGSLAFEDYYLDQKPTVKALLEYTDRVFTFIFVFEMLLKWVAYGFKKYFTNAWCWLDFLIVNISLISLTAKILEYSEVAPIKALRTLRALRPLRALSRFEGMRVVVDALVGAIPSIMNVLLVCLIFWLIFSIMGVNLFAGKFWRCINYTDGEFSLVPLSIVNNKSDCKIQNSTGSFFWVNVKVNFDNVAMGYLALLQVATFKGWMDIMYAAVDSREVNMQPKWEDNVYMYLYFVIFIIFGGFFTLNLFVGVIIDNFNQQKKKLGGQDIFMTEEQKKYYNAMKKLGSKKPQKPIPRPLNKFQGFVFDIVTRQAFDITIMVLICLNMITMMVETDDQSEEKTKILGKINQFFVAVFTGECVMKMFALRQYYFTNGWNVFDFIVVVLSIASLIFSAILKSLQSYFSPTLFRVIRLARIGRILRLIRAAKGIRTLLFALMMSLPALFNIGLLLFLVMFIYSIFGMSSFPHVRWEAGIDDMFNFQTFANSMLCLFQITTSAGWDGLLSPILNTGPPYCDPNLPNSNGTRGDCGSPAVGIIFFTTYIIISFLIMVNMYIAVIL

The target of one test is human Nav 1.8 (Homo sapiens, UniProt Q9Y5Y9). The test can be described thus: E-VIPR assay detecting and measuring Nav inhibition properties. To be noted: HEK cells expressing a truncated form of human Nav 1.8; assay performed in the presence of human serum (compound numbers followed by "*"); read-out: measured IC50 value in the E-VIPR Assay. Type of test: cell-based. A digest of the protocol:
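Nav inhibition was read by E-VIPR: cells were electrically stimulated while coumarin/oxonol FRET emissions were recorded. Cells were HEK expressing a truncated human Nav 1.8 and co-transduced with KIR2.1, and were assayed in 25% final human serum.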
For `COCC[C@]1(C)C[C@@H](c2ccc(F)c(F)c2OC)[C@H](C(=O)Nc2ccnc(C(N)=O)c2)O1` (single isomer, unassigned) [Compound 30], the IC50 was at least 1000 nM.

Still in this test, the particulars now being: HEK cells expressing a truncated form of human Nav 1.8; compound numbers without "*" (not marked as run in the presence of human serum); read-out: measured IC50 value in the E-VIPR Assay.
As to `C[C@H]1[C@@H](c2ccc(F)c(F)c2OCCN2CC3(COC3)C2)[C@H](C(=O)Nc2ccnc(C(N)=O)c2)O[C@@]1(C)C(F)(F)F` [Compound 53, 4-((2R,3S,4S,5R)-3-(2-(2-(2-oxa-6-azaspiro[3.3]heptan-6-yl)ethoxy)-3,4-difluorophenyl)-4,5-dimethyl-5-(trifluoromethyl)tetrahydrofuran-2-carboxamido)picolinamide], the concentration for half-maximal inhibition (IC50) was under 10 nM.
Still for that read-out and setting: as for `COc1c([C@H]2[C@H](C(=O)Nc3ccnc(C(N)=O)c3)O[C@@](C)(C(F)(F)F)[C@H]2C)ccc(OC2CC(F)(F)C2)c1F` [Compound 207, 4-((2R,3S,4S,5R)-3-(4-(3,3-difluorocyclobutoxy)-3-fluoro-2-methoxyphenyl)-4,5-dimethyl-5-(trifluoromethyl)tetrahydrofuran-2-carboxamido) picolinamide], the figure is under 10 nM; as for `C[C@H]1[C@@H](c2ccc(F)c(F)c2OCCn2ccnc2)[C@H](C(=O)Nc2ccnc(C(N)=O)c2)O[C@@]1(C)C(F)(F)F` [Compound 45, 4-((2R,3S,4S,5R)-3-(2-(2-(1H-imidazol-1-yl)ethoxy)-3,4-difluorophenyl)-4,5-dimethyl-5-(trifluoromethyl)tetrahydrofuran-2-carboxamido)picolinamide], under 10 nM.
Still for that read-out and setting: the result for `C[C@H]1[C@@H](c2ccc(F)c(F)c2OCCC2(C#N)CC2)[C@H](C(=O)Nc2ccnc(C(N)=O)c2)O[C@@]1(C)C(F)(F)F` [Compound 77, 4-((2R,3S,4S,5R)-3-(2-(2-(1-cyanocyclopropyl)ethoxy)-3,4-difluorophenyl)-4,5-dimethyl-5-(trifluoromethyl)tetrahydrofuran-2-carboxamido)picolinamide] reads under 10 nM; that for `C[C@H]1[C@@H](c2ccc(C(F)F)nc2OCCO)[C@H](C(=O)Nc2ccnc(C(N)=O)c2)O[C@@]1(C)C(F)(F)F` [Compound 208, 4-((2R,3S,4S,5R)-3-(6-(difluoromethyl)-2-(2-hydroxyethoxy)pyridin-3-yl)-4,5-dimethyl-5-(trifluoromethyl)tetrahydrofuran-2-carboxamido) picolinamide], 100 to 1000 nM; that for `COc1c([C@H]2[C@H](C(=O)Nc3ccnc(C(=O)N4CCO[C@H]5CNC[C@H]54)c3)O[C@@](C)(C(F)(F)F)[C@H]2C)ccc(F)c1F` [Compound 243, (2R,3S,4S,5R)-3-(3,4-difluoro-2-methoxyphenyl)-4,5-dimethyl-N-(2-((4aR,7aS)-octahydropyrrolo[3,4-b][1,4]oxazine-4-carbonyl)pyridin-4-yl)-5-(trifluoromethyl)tetrahydrofuran-2-carboxamide], under 10 nM.
Same read-out and setting: the result for `C[C@H]1[C@@H](c2ccc(F)c(F)c2OCCN2CC(C)(O)C2)[C@H](C(=O)Nc2ccnc(C(N)=O)c2)O[C@@]1(C)C(F)(F)F` [Compound 122, 4-((2R,3S,4S,5R)-3-(3,4-difluoro-2-(2-(3-hydroxy-3-methylazetidin-1-yl)ethoxy)phenyl)-4,5-dimethyl-5-(trifluoromethyl)tetrahydrofuran-2-carboxamido)picolinamide] reads 10 to 100 nM; that for `COc1c([C@H]2[C@H](C(=O)Nc3cc(C(=O)N4CCN(C)CC4)ncc3F)O[C@@](C)(C(F)(F)F)[C@H]2C)ccc(F)c1F` [Compound 9, (2R,3S,4S,5R)-3-(3,4-difluoro-2-methoxyphenyl)-N-(5-fluoro-2-(4-methylpiperazine-1-carbonyl)pyridin-4-yl)-4,5-dimethyl-5-(trifluoromethyl)tetrahydrofuran-2-carboxamide], under 10 nM.
As to `C[C@H]1[C@@H](c2ccc(F)c(F)c2OCC2(F)CNC2)[C@H](C(=O)Nc2ccnc(C(N)=O)c2)O[C@@]1(C)C(F)(F)F` [Compound 106, 4-((2R,3S,4S,5R)-3-(3,4-difluoro-2-((3-fluoroazetidin-3-yl)methoxy)phenyl)-4,5-dimethyl-5-(trifluoromethyl)tetrahydrofuran-2-carboxamido)picolinamide], the IC50 was in the range of 100 to 1000 nM.
On the same count and under the same terms, as for `C[C@H]1[C@@H](c2ccc(F)c(F)c2OCc2nccn2C)[C@H](C(=O)Nc2ccnc(C(N)=O)c2)O[C@@]1(C)C(F)(F)F` [Compound 61, 4-((2R,3S,4S,5R)-3-(3,4-difluoro-2-((1-methyl-1H-imidazol-2-yl)methoxy)phenyl)-4,5-dimethyl-5-(trifluoromethyl)tetrahydrofuran-2-carboxamido)picolinamide], the figure is under 10 nM.
Same read-out and setting: as for `CNC(=O)c1cc(NC(=O)[C@@H]2O[C@@](C)(C(F)(F)F)[C@@H](C)[C@H]2c2ccc(F)c(F)c2OC[C@@H](C)N2CC3(COC3)C2)ccn1` [Compound 41, 4-((2R,3S,4S,5R)-3-(2-((R)-2-(2-oxa-6-azaspiro[3.3]heptan-6-yl)propoxy)-3,4-difluorophenyl)-4,5-dimethyl-5-(trifluoromethyl)tetrahydrofuran-2-carboxamido)-N-methylpicolinamide], the figure is 100 to 1000 nM.
The same measure, in the same setting: as for `CC(C)C(COc1c([C@H]2[C@H](C(=O)Nc3ccnc(C(N)=O)c3)O[C@@](C)(C(F)(F)F)[C@H]2C)ccc(F)c1F)=NO` (single isomer, unassigned) [Compound 187, rel-4-((2R*,3S*,4S*,5R*)-3-(3,4-difluoro-2-(2-(hydroxyimino)-3-methylbutoxy)phenyl)-4,5-dimethyl-5-(trifluoromethyl)tetrahydrofuran-2-carboxamido)picolinamide], the figure is under 10 nM.
In the case of `C[C@H]1[C@@H](c2ccc(F)c(F)c2OCC(=NO)C2CC2)[C@H](C(=O)Nc2ccnc(C(N)=O)c2)O[C@@]1(C)C(F)(F)F` (single isomer, unassigned) [Compound 183, rel-4-((2R*,3S*,4S*,5R*)-3-(2-(2-cyclopropyl-2-(hydroxyimino)ethoxy)-3,4-difluorophenyl)-4,5-dimethyl-5-(trifluoromethyl)tetrahydrofuran-2-carboxamido) picolinamide], the IC50 was under 10 nM.
Same read-out and setting: as for `C[C@@H]1[C@H](c2ccc(F)c3c2CCC3(F)F)[C@@H](C(=O)Nc2ccnc(C(N)=O)c2)O[C@]1(C)C(F)(F)F` (single isomer, unassigned) [Compound 148], the figure is at least 1000 nM; as for `CC(C)(O)COc1c([C@@H]2C[C@](C)(C(F)(F)F)O[C@H]2C(=O)Nc2ccnc(C(N)=O)c2)ccc(F)c1F` (relative stereo) [Compound 32, rel-4-((2R,3S,5R)-3-(3,4-difluoro-2-(2-hydroxy-2-methylpropoxy)phenyl)-5-methyl-5-(trifluoromethyl)tetrahydrofuran-2-carboxamido) picolinamide], 100 to 1000 nM; as for `COc1c([C@H]2[C@H](C(=O)Nc3ccnc(C(=O)N4CC5(CCN5C)C4)c3)O[C@@](C)(C(F)(F)F)[C@H]2C)ccc(F)c1F` [Compound 216, (2R,3S,4S,5R)-3-(3,4-difluoro-2-methoxyphenyl)-4,5-dimethyl-N-(2-(1-methyl-1,6-diazaspiro[3.3]heptane-6-carbonyl)pyridin-4-yl)-5-(trifluoromethyl)tetrahydrofuran-2-carboxamide], under 10 nM.
Still for that read-out and setting: the result for `COc1c([C@H]2[C@H](C(=O)Nc3ccnc(C(=O)N4C[C@@H](N(C)C)[C@@H](F)C4)c3)O[C@@](C)(C(F)(F)F)[C@H]2C)ccc(F)c1F` [Compound 300, (2R,3S,4S,5R)-3-(3,4-difluoro-2-methoxyphenyl)-N-(2-((3R,4S)-3-(dimethylamino)-4-fluoropyrrolidine-1-carbonyl)pyridin-4-yl)-4,5-dimethyl-5-(trifluoromethyl)tetrahydrofuran-2-carboxamide] reads 10 to 100 nM; that for `COc1c([C@H]2[C@H](C(=O)Nc3ccnc(C(=O)NC[C@@H]4CC(F)(F)CN4)c3)O[C@@](C)(C(F)(F)F)[C@H]2C)ccc(F)c1F` [Compound 226, 4-((2R,3S,4S,5R)-3-(3,4-difluoro-2-methoxyphenyl)-4,5-dimethyl-5-(trifluoromethyl)tetrahydrofuran-2-carboxamido)-N-(((S)-4,4-difluoropyrrolidin-2-yl)methyl)picolinamide], 100 to 1000 nM; that for `C[C@H]1[C@@H](c2ccc(F)c(F)c2O[C@@H]2CCN(C)C2)[C@H](C(=O)Nc2ccnc(C(N)=O)c2)O[C@@]1(C)C(F)(F)F` (single isomer, unassigned) [Compound 102, rel-4-((2R*,3S*,4S*,5R*)-3-(3,4-difluoro-2-((-1-methylpyrrolidin-3-yl)oxy)phenyl)-4,5-dimethyl-5-(trifluoromethyl)tetrahydrofuran-2-carboxamido)picolinamide], 10 to 100 nM.
Same read-out and setting: the result for `COc1c([C@H]2[C@H](C(=O)Nc3ccnc(C(=O)N4C[C@H](OC)[C@H](N(C)C)C4)c3)O[C@@](C)(C(F)(F)F)[C@H]2C)ccc(F)c1F` [Compound 302, (2R,3S,4S,5R)-3-(3,4-difluoro-2-methoxyphenyl)-N-(2-((3R,4S)-3-(dimethylamino)-4-methoxypyrrolidine-1-carbonyl)pyridin-4-yl)-4,5-dimethyl-5-(trifluoromethyl)tetrahydrofuran-2-carboxamide] reads under 10 nM; that for `COc1c([C@H]2[C@H](C(=O)Nc3ccnc(C(=O)N4C[C@@H](N)[C@@H](F)C4)c3)O[C@@](C)(C(F)(F)F)[C@H]2C)ccc(F)c1F` [Compound 259, (2R,3S,4S,5R)-N-(2-((3R,4S)-3-amino-4-fluoropyrrolidine-1-carbonyl)pyridin-4-yl)-3-(3,4-difluoro-2-methoxyphenyl)-4,5-dimethyl-5-(trifluoromethyl)tetrahydrofuran-2-carboxamide], under 10 nM; that for `C[C@H]1[C@@H](c2ccc(F)c(F)c2OCC2CN(C)C2)[C@H](C(=O)Nc2ccnc(C(N)=O)c2)O[C@@]1(C)C(F)(F)F` [Compound 104, 4-((2R,3S,4S,5R)-3-(3,4-difluoro-2-((1-methylazetidin-3-yl)methoxy)phenyl)-4,5-dimethyl-5-(trifluoromethyl)tetrahydrofuran-2-carboxamido)picolinamide], 10 to 100 nM.
